Data reported in patent US9359298B2, “Cajanine structure analogous compound, preparation method and use” (INSTITUTE OF MEDICINAL BIOTECHNOLOGY, CHINESE ACADEMY OF …, priority 2011, dated 2016).
In brackets after ≈: the same amount, converted by molar mass. Like-named read-outs stand apart in the source and are kept apart here.

Tests used:
Type in all cases: cell-based
[1] = system: Influenza A virus (hanfang359/95); experiment: Determination of anti-influenza virus activity (CPE in MDCK cells); details: for IC50: Influenza A virus, MDCK, 36 h; for anti-influenza virus activities compared with the lead compound cajanine: statement in words
HIV-1 III B virus = experiment: Anti-HIV activity assay (P24 antigen in MT-4 cells); details: for IC50: Human immunodeficiency virus 1, MT4, 96 h, read-out: HIV IC50; for anti-HIV viral activity: statement in words
Coxsackie virus B6 = experiment: Coxsackie virus activity assay (CPE in Vero cells); details: Vero
HCV = experiment: Anti-hepatitis C virus (HCV) activity assay (HCV RNA in Huh7.5 cells); details: for EC50: Hepatitis C virus, Huh7.5, 72 h, read-out: HCV EC50; for anti-HCV viral activity: statement in words
Experimental: Inoculate Huh7.5 cells into 96-well plates to a density of 3×10^4 cells/cm^2, culture for 24h, infect the cells with 45 IU/cell HCV supernatant, meanwhile, add drug solutions or solvent control for treatment.

[2] = MT-4 cells, HIV-1 III B 100TCID50, 96 h, P24 antigen
[3] = read-out: COX-B6 IC50, Vero cells, about 100TCID50, CPE, Reed-Muench
[4] = Huh7.5 cells, 72 h, HCV RNA by RT-PCR, Reed-Muench

SMILES	IC50 [1]	IC50 (HIV-1 III B virus; [2])	anti-HIV viral activity (HIV-1 III B virus)	IC50 (Coxsackie virus B6; [3])	EC50 (HCV; [4])	anti-HCV viral activity (HCV)	anti-influenza virus activities compared with the lead compound cajanine [1]	IC50 (HIV-1 III B virus)	IC50 (Coxsackie virus B6; read-out: COX-B6 IC50)	EC50 (HCV)
COC(=O)c1c(/C=C/c2ccccn2)cc(OC)c(CC=C(C)C)c1O [Compound 8t, methyl 2-hydroxy-3-isopentenyl-4-methoxy-6-[(E)-2-(pyrid-2-yl)ethenyl]benzoate]	0.12 µg/mL (≈ 0.34 µM)	0.6 µg/mL (≈ 1.7 µM)	stronger anti-HIV, HCV viral activities	1.32 µg/mL (≈ 3.73 µM)	0.64 µg/mL (≈ 1.81 µM)	stronger anti-HIV, HCV viral activities	–	–	–	–
COC(=O)c1c(/C=C/c2cc(OC)c(OC)c(OC)c2)cc(OC)c(CC=C(C)C)c1O [Compound 8u, methyl 2-hydroxy-3-isopentenyl-4-methoxy-6-[(E)-(3,4,5-trimethoxy-styryl)]benzoate]	0.11 µg/mL (≈ 0.249 µM)	1.49 µg/mL (≈ 3.37 µM)	stronger anti-HIV, HCV viral activities	1.65 µg/mL (≈ 3.73 µM)	0.67 µg/mL (≈ 1.51 µM)	stronger anti-HIV, HCV viral activities	–	–	–	–
COC(=O)c1c(/C=C/c2cc(OC)ccn2)cc(OC)c(CC=C(C)C)c1O [Compound 8v, methyl 2-hydroxy-3-isopentenyl-4-methoxy-6-[(E)-2-(4-methoxypyrid-2-yl)ethenyl]benzoate]	0.87 µg/mL (≈ 2.27 µM)	1.01 µg/mL (≈ 2.63 µM)	stronger anti-HIV, HCV viral activities	2.68 µg/mL (≈ 6.99 µM)	2.39 µg/mL (≈ 6.23 µM)	stronger anti-HIV, HCV viral activities	–	–	–	–
COC(=O)c1c(/C=C/c2ccccc2)cc(OC)c(CC=C(C)C)c1OC(=O)CN [Compound 24a]	2.31 µg/mL (≈ 5.64 µM)	1.79 µg/mL (≈ 4.37 µM)	–	3.21 µg/mL (≈ 7.84 µM)	0.98 µg/mL (≈ 2.39 µM)	–	–	–	–	–
COc1cc(/C=C/c2ccccc2)cc(OC(=O)CN)c1CC=C(C)C [Compound 24c, 2-isopentenyl-3-aminoacetoxy-5-[(E)styryl]anisole]	1.24 µg/mL (≈ 3.53 µM)	2.78 µg/mL (≈ 7.91 µM)	–	0.98 µg/mL (≈ 2.79 µM)	0.94 µg/mL (≈ 2.67 µM)	–	–	–	–	–
COC(=O)c1c(/C=C/c2ccccc2)cc(OC)c(CC=C(C)C)c1OC(=O)C1CCCN1 (stereo not shown) [Compound 24d]	0.12 µg/mL (≈ 0.267 µM)	0.81 µg/mL (≈ 1.8 µM)	–	0.45 µg/mL (≈ 1 µM)	0.87 µg/mL (≈ 1.94 µM)	–	–	–	–	–
COc1cc(/C=C/c2ccccc2)cc(OC(=O)C2CCCN2)c1CC=C(C)C (stereo not shown) [Compound 24f]	0.13 µg/mL (≈ 0.332 µM)	1.01 µg/mL (≈ 2.58 µM)	–	0.21 µg/mL (≈ 0.536 µM)	0.69 µg/mL (≈ 1.76 µM)	–	significantly stronger than the lead compound cajanine	–	–	–
COC(=O)c1c(/C=C/c2ccccc2)cc(OC)c(CC=C(C)C)c1OC(C)=O [Compound 24g, methyl 2-acetoxy-3-isopentenyl-4-methoxy-6-[(E)-styryl]benzoate]	0.25 µg/mL (≈ 0.634 µM)	0.33 µg/mL (≈ 0.837 µM)	–	1.65 µg/mL (≈ 4.18 µM)	0.83 µg/mL (≈ 2.1 µM)	–	significantly stronger than the lead compound cajanine	–	–	–
COc1cc(/C=C/c2ccccc2)cc(OC(C)=O)c1CC=C(C)C [Compound 24i]	0.15 µg/mL (≈ 0.446 µM)	2.09 µg/mL (≈ 6.21 µM)	–	0.92 µg/mL (≈ 2.73 µM)	0.99 µg/mL (≈ 2.94 µM)	–	significantly stronger than the lead compound cajanine	–	–	–
COC(=O)c1c(/C=C/c2ccccc2)cc(OC)c(CC=C(C)C)c1OC(=O)c1cccnc1 [Compound 24j, 2-(pyridyl-3-formylox)-3-isopentenyl-4-methoxy-6-[(E)-styryl]-benzoate]	2.36 µg/mL (≈ 5.16 µM)	2.65 µg/mL (≈ 5.79 µM)	–	3.61 µg/mL (≈ 7.89 µM)	1.35 µg/mL (≈ 2.95 µM)	–	–	–	–	–
COc1cc(/C=C/c2ccccc2)cc(OC(=O)c2cccnc2)c1CC=C(C)C [Compound 24l, 2-isopentenyl-3-(pyridyl-3-formyloxy)-5-[(E)-styryl]anisole]	1.04 µg/mL (≈ 2.6 µM)	1.4 µg/mL (≈ 3.5 µM)	–	0.95 µg/mL (≈ 2.38 µM)	1.6 µg/mL (≈ 4.01 µM)	–	–	–	–	–
COC(=O)c1c(/C=C/c2ccccc2)cc(OC)c(CC=C(C)C)c1OC(=O)CN(C)C [Compound 24m, 2-(N,N-dimethylacetyloxy)-3-isopentenyl-4-methoxy-6-[(E)-styryl]benzoate]	6.52 µg/mL (≈ 14.9 µM)	2.6 µg/mL (≈ 5.94 µM)	–	3.46 µg/mL (≈ 7.91 µM)	0.8 µg/mL (≈ 1.83 µM)	–	–	–	–	–
COc1cc(/C=C/c2ccccc2)cc(OC(=O)CN(C)C)c1CC=C(C)C [Compound 24o, 2-isopentenyl-3-(N,N-dimethylacetoxy)-5-[(E)-styryl]anisole]	2.31 µg/mL (≈ 6.09 µM)	0.69 µg/mL (≈ 1.82 µM)	–	1.21 µg/mL (≈ 3.19 µM)	1.34 µg/mL (≈ 3.53 µM)	–	–	–	–	–
COC(=O)c1c(/C=C/c2ccccc2)cc(OC)c(CC=C(C)C)c1OC(=O)c1cnc[nH]1 [Compound 24p]	1.32 µg/mL (≈ 2.96 µM)	0.31 µg/mL (≈ 0.694 µM)	–	2.36 µg/mL (≈ 5.29 µM)	0.77 µg/mL (≈ 1.72 µM)	–	–	–	–	–
COc1cc(/C=C/c2ccccc2)cc(OC(=O)c2cnc[nH]2)c1CC=C(C)C [Compound 24r]	0.98 µg/mL (≈ 2.52 µM)	2.31 µg/mL (≈ 5.95 µM)	–	0.68 µg/mL (≈ 1.75 µM)	1.05 µg/mL (≈ 2.7 µM)	–	–	–	–	–
COC(=O)c1c(/C=C/c2ccccc2)cc(OC)c(CC=C(C)C)c1OCN [Compound 26a]	2.31 µg/mL (≈ 6.06 µM)	1.73 µg/mL (≈ 4.54 µM)	–	6.54 µg/mL (≈ 17.1 µM)	2.09 µg/mL (≈ 5.48 µM)	–	–	–	–	–
COc1cc(/C=C/c2ccccc2)cc(OCN)c1CC=C(C)C [Compound 26c, 2-isopentenyl-3-aminomethoxy-5-[(E)-styryl]anisole]	1.35 µg/mL (≈ 4.17 µM)	3.18 µg/mL (≈ 9.83 µM)	–	2.64 µg/mL (≈ 8.16 µM)	2.07 µg/mL (≈ 6.4 µM)	–	–	–	–	–
COC(=O)c1c(/C=C/c2ccccc2)cc(OC)c(CC=C(C)C)c1OCC1CNCCN1 (stereo not shown) [Compound 26d, methyl 2-(piperazin-2-yl)methoxy-3-isopentenyl-4-methoxy-6-[(E)-styryl]benzoate]	1.36 µg/mL (≈ 3.02 µM)	–	–	2.75 µg/mL (≈ 6.1 µM)	1.53 µg/mL (≈ 3.4 µM)	–	–	1.36 µg/mL (≈ 3.02 µM)	–	–
COc1cc(/C=C/c2ccccc2)cc(OCC2CNCCN2)c1CC=C(C)C (stereo not shown) [Compound 26f, 2-isopentenyl-3-(piperazin-2-yl)methoxy-5-[(E)-styryl]anisole]	0.68 µg/mL (≈ 1.73 µM)	1.61 µg/mL (≈ 4.1 µM)	–	0.98 µg/mL (≈ 2.5 µM)	1.39 µg/mL (≈ 3.54 µM)	–	significantly stronger than the lead compound cajanine	–	–	–
COC(=O)c1c(/C=C/c2ccccc2)cc(OC)c(CC=C(C)C)c1OC(=N)N [Compound 27a, 2-iso-ureido-3-isopentenyl-4-methoxy-6-[(E)-styryl]-benzoate]	1.32 µg/mL (≈ 3.35 µM)	2.48 µg/mL (≈ 6.29 µM)	–	2.34 µg/mL (≈ 5.93 µM)	1.34 µg/mL (≈ 3.4 µM)	–	–	–	–	–
COc1cc(/C=C/c2ccccc2)cc(OC(=N)N)c1CC=C(C)C [Compound 27c, 2-isopentenyl-3-isoureido-5-[(E)-styryl]anisole]	0.54 µg/mL (≈ 1.61 µM)	2.03 µg/mL (≈ 6.03 µM)	–	0.92 µg/mL (≈ 2.73 µM)	1.26 µg/mL (≈ 3.75 µM)	–	–	–	–	–
COC(=O)c1c(/C=C/c2ccccc2)cc(OC)c(CC=C(C)C)c1OC(=O)NN [Compound 29a, methyl 2-Hydrazinoformyloxy-3-isopentenyl-4-methoxy-6-[(E)-styryl]benzoate]	0.98 µg/mL (≈ 2.39 µM)	–	stronger anti-HIV, HCV viral activities	–	–	stronger anti-HIV, HCV viral activities	–	0.43 µg/mL (≈ 1.05 µM)	1.36 µg/mL (≈ 3.31 µM)	0.51 µg/mL (≈ 1.24 µM)
CCOC(=O)C1=C[C@@H](OC(CC)CC)[C@H](NC(C)=O)[C@@H](N)C1 [Oseltamivirphosphate, reference compound]	0.22 µg/mL (≈ 0.704 µM)	–	–	–	–	–	–	–	–	–
NC(=O)c1ncn([C@@H]2O[C@H](CO)[C@@H](O)[C@H]2O)n1 [RBV, Ribavirin, reference compound]	0.59 µg/mL (≈ 2.42 µM)	–	–	412 µg/mL (≈ 1690 µM)	–	–	–	–	–	–
